# Where no end group is shown, it is not given here.
# Assays:
# PC12 cells [1] = system: PC12 cells
# Protocol: (§1) Neuronal cell line (PC12) was used to evaluate the neuroprotective effects of α-scoliidine and β-scoliidine against oxidative stress in vitro. PC12 cell is derived from a transplantable rat pheochromocytoma and was purchased from American Type Culture Collection (USA) (ATCC® CRL-1721™). Cells were routinely cultured in DMEM medium (Sigma-Aldrich) supplemented with 10% fetal bovine serum (Gibco, Waltham, USA), 1% (v/v) of 10000 U/mL penicillin, 10 mg/mL streptomycin and 25 μg/mL amphotericin B solution (Sigma-Aldrich) at 37 °C in an atmosphere of 5% CO2 and 95% air (Water Jacketed CO2 Incubator, Thermo Scientific). At 80% confluence, cells were passaged using trypsin-EDTA solution [0.05% (m/v) trypsin and 0.02% (m/v) EDTA]. Culture medium was replaced every 2-3 days.
# PC12 cells were seeded into 96-well plates (Nest Biotechnology, Rahway, USA), at 2.0 × 10^4 cells per well, and were treated with different concentrations (0.1 to 10 µM) of α-scoliidine and β-scoliidine in a final volume of 0.15 mL. The plate was incubated at 37°C for 3, 6, 12, 24, and 48 h. For each concentration and time course studied, there were control and DMSO groups, which represent untreated cells (only one equal volumes of the culture medium) and treated with DMSO 2.5% (v/v) diluted in the medium culture, respectively. The cytotoxic effects of both compounds were determined using crystal violet assay, according to Feoktistova et al.. Briefly, the medium was aspirated, and the cells were washed twice in a gentle stream of tap water. Then, 50 μL of a 0.5 % (v/v) crystal violet staining solution was added to each well, and incubated for 20 min at room temperature on a bench rocker with a frequency of 20 oscillations per min. The plate was washed four times and air-dried for at least 2 h at room temperature. Subsequently, methanol (200 μL) was added to each well, and the plate was incubated with its lid on for 20 min at room temperature on a bench rocker with a frequency of 20 oscillations per min. After, the absorbance of the sample was measured at 570 nm using a SpectraMax reader (Molecular Devices, CA, USA). The cytotoxicity was expressed as percentage (%) of cell integrity relative to control cells (100%).
# (§2) All data are presented as mean ± SD of three independent experiments (n = 3) in triplicate. Data were analyzed using one-way analysis of variance (ANOVA) for between-groups comparisons followed by a Tukey’s post-hoc test for multiple comparisons. Values of p < 0.05 were considered to be statistically significant. The analyses were performed using GraphPad Prism 6.0 software (GraphPad Software, Inc., La Jolla, CA).
# PC12 cells [2] = conditions: cited from earlier work
# PC12 cells [3] = system: PC12 cells; remark: listed apart in the source
# Protocol: as §1
# PC12 cells were seeded at 2 x 10^4 cells/well in a 96-well plate (Nest Biotechnology, Rahway, USA) for 24 h, and then two neuroprotective assays were evaluated: 1) Cells were pre-treated with α-scoliidine or β-scoliidine (1 µM) at 37°C for 22 h and, after the mediums were replaced containing the peptide and H2O2 (0.6 mM) and incubated for 2 h more; 2) Cells were pre-treated with α-scoliidine or β-scoliidine (1 µM) for 4 h at 37°C and, after the mediums were replaced containing peptide and H2O2 (0.6 mM) and incubated for 20 h more. The control, α-scoliidine and β-scoliidine groups (without H2O2) were incubated under the same conditions. Next, all experimental groups were analyzed by the crystal violet assay.
# as §2
# PC12 cells [4] = format: cell-based, rat
# Protocol: Culture medium was replaced every 2-3 days.
# The effects of α-scoliidine or β-scoliidine on the mitochondrial metabolism of PC12 cells were estimated using 3-(4,5-dimethylthiazol-2-yl)-2,5-diphenyltetrazolium bromide (MTT) reduction assay, as previously described. […] In addition, to the experimental groups mentioned above, two more groups were included in which cells were treated with L-N^Ω-Nitroarginine methyl ester (L-Name; 1 mM) and Bradykinin (Bk; 0.3 µM) in the presence or absence of H2O2. After treatments, cells were treated with 0.5 mg/mL MTT in the same medium culture for 3 h at 37°C. The resulting formazan produced by both cell treatments were dissolved by addition of DMSO. The amount of MTT formazan dissolved in DMSO was determined by measuring absorbance with a microplate reader (Spectramax M3 multi-mode, Molecular Devices, CA, EUA) at 540 nm. Data were expressed as the mean ± SD of mitochondrial metabolism percentage in relation to the control.
# cells = conditions: cited from earlier work
# Excerpt: The phenomenon of synergistic toxicity of H2O2 effects when two agents are used together, and efficiently potentiate cell damage, has been reported in the literature. Of the several examples of H2O2 toxicity potentiation by oth ...
# [5] = system: human neuroblast-like cell line SH-SY5Y; conditions: cited from earlier work
# Excerpt: (§3) BPP-11e (<[…]) and BPP-AP (<[…]), for example, ...
# human neural stem cells = conditions: cited from earlier work
# Excerpt: as §3
# ACE = assay: Cleavage by ACE (stability test, HPLC); format: in vitro ADME, rabbit; conditions: peptide 30 µM, 37°C, four hours, RP-HPLC, UV 214 nm; for metabolised at 4 h, 30 µM: rabbit, ACE
# Excerpt: All chemicals used in the present study were of analytical reagent grade (purity higher than 95%) and purchased from Calbiochem-Novabiochem Corporation (USA), Gibco BRL (New York, USA), Fluka Chemical Corp. (Buchs, Switzerland) or Sigma-Aldrich Corporation (MO, USA). The ACE I from rabbit lung (EC 3.4.15.1) from Sigma-Aldrich. For the reverse phase chromatography, acetonitrile and TFA were acquired from J.T. Baker. The FRET substrate Abz-FRK(Dnp)P-OH (used by ACE-I assays) were provided by Prof. Adriana Carmona, from the Department of Biophysics of UNIFESP-EPM, São Paulo, Brazil.
# Both peptides (30 µM) were incubated separately with ACE ([…]) at 37°C for four hours. Samples containing only the synthetic peptides were used as negative control. After incubation, samples were analyzed by reverse phase chromatography on HPLC (Prominence, Shimadzu), using a Shim-pack VP-ODS C-18 column (4.6× 150 mm). Solvents used were 0.1% (v/v) TFA in water (solvent A), and acetonitrile plus solvent A (9:1) as solvent B. Separations were performed at a flow rate of 1 mL/min and a 10-60% gradient of solvent B over 20 min. In all cases, elution was followed by the measurement of ultraviolet absorption (214 nm).
# human neprilysin (NEP) = assay: Cleavage by NEP; format: in vitro ADME; conditions: isolated human neprilysin (NEP)
# Excerpt: Table 8 Hydrolyses of α-scoliidine and β-scoliidine by human neprilysin (NEP) and angiotensin-converting enzyme (ACE). | column: Cleavage (%)
# [6] = system: nicotinic acetylcholine receptor (nAChR); conditions: prey central nervous system; cited from earlier work
# Excerpt: The first study of solitary wasp venoms was reported in 1987. Two kinins, threonine^6-bradykinin (Thr^6-BK) and megascoliakinin, were isolated and characterized from the venoms of the European scoliid wasps Colpa interrupta and Megascolia flavifrons, respectively. […] Thr^6-BK may be a common component of solitary scoliid wasp venoms, since we identified this peptide as a major component in three scoliid wasp venoms found in Japan [[1 ...
# [7] = 0.1 to 10 µM, n = 3 in triplicate
compound,measurement,setting,value
"C[S+](C)[O-] [DMSO, dimethyl sulfoxide]",Cell integrity after 24 and 48 h,"PC12 cells [1]; 24 and 48 h, compared to the control group, peptides 0.1 to 10 µM, DMSO 2.5% (v/v), n = 3 in triplicate",decreased the cell integrity after 24 and 48 h compared to the control group
Cc1cccc([C@H](C)c2cnc[nH]2)c1C [Dexmedetomidine],Proliferation in a stress condition,PC12 cells [2],dose-dependent restored impaired proliferation of PC12 cells in a stress condition
same,Protection from ROS-induced cytotoxicity,PC12 cells [2],protected PC12 cells from ROS-induced cytotoxicity
same,p21 and cyclin D1 expression,PC12 cells [2],decreased expression of tumor suppressor protein p21 and increased expression of cell cycle-related cyclin D1
"OO [H2O2, hydrogen peroxide]",H2O2 concentration above which cytotoxic,PC12 cells [3],greater than 0.5 mM
same,"H2O2 cytotoxicity dose response, chronic",PC12 cells [3],also showed a dose-response effect
same,Reduction of cell viability by H2O2,PC12 cells [3],~ 60%
same,Metabolic viability,PC12 cells [4],32.23 ± 0.96%
"COC(=O)[C@@H](N)CCCNC(N)=N[N+](=O)[O-] [L-Name, L-N^Ω-Nitroarginine methyl ester]",Metabolic viability under H2O2,"PC12 cells [4]; pre-treatment 4 h, then + H2O2 0.6 mM 20 h, peptides 1 µM, L-Name 1 mM, Bk 0.30 μM, MTT",prevented the reduction of metabolic viability
O=C1O[C@H]([C@@H](O)CO)C(O)=C1O [ascorbic acid],Effect on intracellular oxidative potential of H2O2,cells,enhancement of the intracellular oxidative potential of H2O2
<EARPPHPPIPP [BPP-11e],Neuroprotection against H2O2-induced oxidative stress,[5],not good neuroprotective peptides against the H2O2-induced oxidative stress
<EARPPHPPIPPAP [BPP-AP],Neuroprotection against H2O2-induced oxidative stress,[5],not good neuroprotective peptides against the H2O2-induced oxidative stress
"Aβ 42: amyloid-β peptide (Aβ) isoform, Aβ 42",Effect on cell proliferation,human neural stem cells,promotes cell proliferation of human neural stem cells in a concentration-dependent manner
DYVTVKGFSPLR [α-scoliidine],Cleavage by ACE,ACE,not cleaved by the metallopeptidase
same,"metabolised at 4 h, 30 µM",ACE,< 0.01%
same,metabolised,human neprilysin (NEP),< 0.01%
same,"Cytotoxicity, cell integrity vs control or DMSO","PC12 cells [1]; 0.1 to 10 µM, 3, 6, 12, 24, and 48 h, mean ± SD of three independent experiments in triplicate","did not show any significant cytotoxicity (p > 0.05) in all dose concentrations, and at the times tested"
same,Cell integrity / neurotoxicity at 6 h,PC12 cells [1]; [7],showed a tendency for neurotoxicity at 6 h of treatment
DYVTVKGFSPLRKA [β-scoliidine],Cleavage by ACE,ACE,not cleaved by the metallopeptidase
same,"metabolised at 4 h, 30 µM",ACE,< 0.01%
same,metabolised,human neprilysin (NEP),< 0.01%
same,Cell integrity / neurotoxicity at 6 h,PC12 cells [1]; [7],decreased cell integrity after 6 h of treatment in all concentration tested
"RPPGFTPFR [Thr^6-BK, threonine^6-bradykinin]",Block of nAChR synaptic transmission,[6],irreversibly block the synaptic transmission of the nicotinic acetylcholine receptor (nAChR) in the prey central nervous system
RPPGFTPFRKA [megascoliakinin],Block of nAChR synaptic transmission,[6],irreversibly block the synaptic transmission of the nicotinic acetylcholine receptor (nAChR) in the prey central nervous system

# Reference: PMC8215932, “Novel neuroprotective peptides in the venom of the solitary scoliid wasp Scolia decorata ventralis” (The Journal of Venomous Animals and Toxins Including …, 2021)
